Like-named read-outs stand apart in the source and are kept apart here.
Experiments:
[1] = target: Beta Secretase enzyme (BACE) (Homo sapiens, UniProt P56817); assay: In vitro enzymatic BACE FRET (fluorescence resonance energy transfer) assay; assay type: biochemical;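 further: fluorescence read after 1 h with 50 nM quenched peptide substrate spanning the BACE cleavage site, in pH 4.2 acetate buffer containing 10% DMSO and nonionic detergent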
[2] = Microsomal stability assay, human liver microsomes;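 further: pooled human liver microsomes at 0.25 mg/mL with 1 µM compound and NADPH at 37 °C, pH 7.4, for 30 min, unchanged parent quantified by LC-MS/MS against the 0 min sample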
[3] = Microsomal stability assay, rat liver microsomes;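 further: rat liver microsomes (0.25 mg/mL) with about 1 µM compound plus 1 mM NADPH, pH 7.4, 37 °C for 30 min, parent left measured by LC-MS/MS against 0 min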
[4] = test system: Aβ40 in conditioned medium of cells stably expressing Amyloid Precursor Protein (APP); assay: In vitro BACE cell-based assay (Aβ40 in conditioned medium, sandwich ELISA); conditions: Homo sapiens;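 further: compounds added as a dilution series, secreted peptide quantified by europium time-resolved fluorescence readout, potency fitted from percent of control versus compound concentration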
CYP2D6 = CYP2D6 (Homo sapiens, UniProt P10635); assay: CYP2D6 inhibition assay (bufuralol, pooled human liver microsomes)
CYP3A4 (CYP3A) = CYP3A4 (CYP3A) (Homo sapiens, UniProt P08684); assay: in vitro; conditions: microsomes, pH 7.4;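 further: inhibition of CYP3A-mediated 1-hydroxymidazolam formation after 10 min incubation with NADPH, quantified by HPLC MS relative to metabolite produced without test compound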
[5] = BACE enzyme assay, read-out: BACE1 FRET assay
[6] = HEK293, HEK cells, read-out: HEK cell assay
[7] = 2D6 IC50 (uM), CYP enzyme inhibition
[8] = BACE enzyme assay, IC50's in uM, read-out: BACE1 FRET assay
[9] = HEK293, HEK cell-based assay, IC50's in uM, read-out: HEK cell assay
[10] = BACE enzyme assay IC50, read-out: BACE1 FRET assay
[11] = HEK293, HEK cell-based assay IC50, read-out: HEK cell assay
[12] = 2D6 IC50 (uM), CYP2D6 inhibition
[13] = Table 2, read-out: BACE1 FRET assay
[14] = HEK293, Table 2, HEK cells, read-out: HEK cell assay
[15] = 2D6 IC50, CYP enzyme inhibition
[16] = read-out: BACE1 FRET assay (IC50)
[17] = HEK293, HEK cells, read-out: HEK cell assay (IC50)

Beta Secretase enzyme (BACE), sequence (P56817 46-501): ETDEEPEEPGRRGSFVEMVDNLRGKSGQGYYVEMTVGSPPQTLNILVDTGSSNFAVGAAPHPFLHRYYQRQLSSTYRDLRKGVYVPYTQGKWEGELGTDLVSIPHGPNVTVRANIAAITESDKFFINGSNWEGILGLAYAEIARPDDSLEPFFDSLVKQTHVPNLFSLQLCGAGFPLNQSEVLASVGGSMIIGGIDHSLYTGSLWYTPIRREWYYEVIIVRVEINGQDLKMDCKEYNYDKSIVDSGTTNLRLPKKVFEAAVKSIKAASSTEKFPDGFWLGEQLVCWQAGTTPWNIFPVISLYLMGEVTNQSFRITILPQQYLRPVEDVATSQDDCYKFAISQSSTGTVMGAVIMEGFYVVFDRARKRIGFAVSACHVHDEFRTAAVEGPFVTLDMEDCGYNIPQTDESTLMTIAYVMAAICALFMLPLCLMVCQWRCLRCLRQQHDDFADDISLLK
CYP3A4 (CYP3A), sequence (P08684 2-503): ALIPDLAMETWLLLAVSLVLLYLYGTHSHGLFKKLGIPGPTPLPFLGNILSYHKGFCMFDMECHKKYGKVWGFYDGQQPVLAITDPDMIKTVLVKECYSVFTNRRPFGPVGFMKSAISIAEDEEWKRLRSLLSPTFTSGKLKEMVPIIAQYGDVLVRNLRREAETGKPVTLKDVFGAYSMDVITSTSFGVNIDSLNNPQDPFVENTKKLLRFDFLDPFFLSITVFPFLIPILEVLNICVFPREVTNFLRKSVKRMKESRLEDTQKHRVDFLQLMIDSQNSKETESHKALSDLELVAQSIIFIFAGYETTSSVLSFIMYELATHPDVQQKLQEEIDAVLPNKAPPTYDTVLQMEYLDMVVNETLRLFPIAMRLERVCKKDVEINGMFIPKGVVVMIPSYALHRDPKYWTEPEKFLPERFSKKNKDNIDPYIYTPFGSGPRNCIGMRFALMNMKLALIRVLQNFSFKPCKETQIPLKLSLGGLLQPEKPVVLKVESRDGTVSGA
CYP2D6, sequence (P10635 whole entry): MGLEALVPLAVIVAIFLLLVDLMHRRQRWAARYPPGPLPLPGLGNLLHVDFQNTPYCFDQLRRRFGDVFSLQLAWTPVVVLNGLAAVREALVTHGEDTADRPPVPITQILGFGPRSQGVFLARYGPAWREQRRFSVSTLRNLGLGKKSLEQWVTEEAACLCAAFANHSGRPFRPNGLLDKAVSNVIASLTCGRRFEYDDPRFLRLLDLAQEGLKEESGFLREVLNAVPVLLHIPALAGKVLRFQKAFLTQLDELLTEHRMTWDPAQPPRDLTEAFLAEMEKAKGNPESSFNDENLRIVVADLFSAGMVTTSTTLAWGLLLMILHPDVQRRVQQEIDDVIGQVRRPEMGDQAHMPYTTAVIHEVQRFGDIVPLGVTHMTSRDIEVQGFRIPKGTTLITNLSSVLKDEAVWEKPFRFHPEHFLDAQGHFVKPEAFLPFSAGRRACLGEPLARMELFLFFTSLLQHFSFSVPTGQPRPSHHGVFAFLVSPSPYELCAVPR

SMILES	IC50 [1, 5] [µM]	HLM ([2]; human liver microsomal data) [µL/min/mg]	RLM ([3]; rat liver microsomal data) [µL/min/mg]	IC50 [4, 6] [µM]	IC50 (CYP2D6; [7]) [µM]	IC50 (CYP3A4 (CYP3A)) [nM]	further results
CC(C)(C)Cc1cnc2c(c1)[C@@H](NC[C@@H](O)[C@H](Cc1ccc(F)cc1)NC(=O)[C@@H]1CCO1)CC1(CCC1)O2 [Example 441, (2S)—N-((1S,2R)-3-(((4′S)-6′-(2,2-dimethylpropyl)-3′,4′-dihydrospiro[cyclobutane-1,2′-pyrano[2,3-b]pyridin]-4′-yl)amino)-1-((4-fluorophenyl)methyl)-2-hydroxypropyl)-2-oxetanecarboxamide]	0.012	416	124	0.012	≥ 27	1100	
CC#Cc1cccc(C[C@H](NC(=O)COC)[C@H](O)CN[C@H]2CC3(CCC3)Oc3ncc(CC(C)C)cc32)c1 [compound 802]		60.5	191		2.15	100	IC50 [1, 8]: 0.005 µM; IC50 [4, 9]: 0.032 µM
CO[C@H](C)C(=O)N[C@@H](Cc1ccc2c(c1)OCO2)[C@H](O)CN[C@H]1CC2(CCC2)Oc2ccc(C[C@H](C)F)cc21 [compound 555]	3.42	269	543	> 10	0.9	400	
COCC(=O)N[C@@H](Cc1cccc(F)c1)[C@H](O)CN[C@H]1CC2(CCC2)Oc2ccc(C[C@@H](C)F)cc21 [compound 559]	0.027	706	829	0.038	1.1	7100	
C#Cc1cnc2c(c1)[C@@H](NC[C@@H](O)[C@H](Cc1cc(F)cc(-c3nccs3)c1)NC(=O)[C@@H](C)OC)CC1(CCC1)O2 [compound 784]		51	64		1	≤ 30	IC50 [1, 8]: 0.158 µM; IC50 [4, 9]: 0.864 µM
Cc1cccc(CN2CCO[C@@H](C(=O)N[C@@H](Cc3ccc(F)cc3)[C@H](O)CN[C@H]3CC4(CCC4)Oc4ncc(CC(C)(C)C)cc43)C2)c1 [compound 685]						200	IC50 [1, 10]: 0.013 µM; HLM ([2]; human liver microsomes): 662 µL/min/mg; RLM ([3]; rat liver microsomes): 283 µL/min/mg; IC50 [4, 11]: 0.012 µM; IC50 (CYP2D6; [12]): 3.1 µM
CO[C@H](C)C(=O)N[C@@H](Cc1cccc(-c2nccs2)c1)[C@H](O)CN[C@H]1CC2(CCC2)Oc2ncc(CC(C)C)cc21 [Example 776, (2R)-N-((1S,2R)-2-hydroxy-3-(((4′S)-6′-(2-methylpropyl)-3′,4′-dihydrospiro[cyclobutane-1,2′-pyrano[2,3-b]pyridin]-4′-yl)amino)-1-(3-(1,3-thiazol-2-yl)benzyl)propyl)-2-methoxypropanamide]		58	61		0.7	200	IC50 [1, 8]: 0.014 µM; IC50 [4, 9]: 0.027 µM
CCC(=O)N[C@@H](Cc1ccc2c(c1)OCO2)[C@H](O)CN[C@H]1CC2(CCC2)Oc2ncc(CC(C)C)cc21 [compound 726, N-((1S,2R)-1-(1,3-benzodioxol-5-ylmethyl)-2-hydroxy-3-(((4′S)-6′-(2-methylpropyl)-3′,4′-dihydrospiro[cyclobutane-1,2′-pyrano[2,3-b]pyridin]-4′-yl)amino)propyl)propanamide]						≤ 30	IC50 [1, 10]: 0.044 µM; HLM ([2]; human liver microsomes): 34 µL/min/mg; RLM ([3]; rat liver microsomes): 173 µL/min/mg; IC50 [4, 11]: 0.048 µM; IC50 (CYP2D6; [12]): 1.4 µM
COCC(=O)N[C@@H](Cc1ccc2c(c1)OCO2)[C@H](O)CN[C@H]1CC2(CCC2)Oc2nc(F)c(CC(C)(C)C)cc21 [compound 485]		43	106			100	IC50 [1, 13]: 0.12 µM; IC50 [4, 14]: 0.378 µM; IC50 (CYP2D6; [15]): 1.7 µM
COCC(=O)N[C@@H](Cc1ccc(F)cc1)[C@H](O)CN[C@H]1CC2(CCC2)Oc2c(-c3cnc[nH]3)cc(CC(C)C)cc21 [compound 513]	0.088	143	82	0.013	2.5	200	
CC(=O)N[C@@H](Cc1cc(F)cc(F)c1)[C@H](O)CN[C@H]1CC2(CCC2)Oc2c(-c3ccncc3)cc(Cl)cc21 [compound 582]						100	IC50 [1, 16]: 0.024 µM; HLM ([2]; human liver microsomes): 97 µL/min/mg; RLM ([3]; rat liver microsomes): 829 µL/min/mg; IC50 [4, 17]: 0.057 µM; IC50 (CYP2D6; 2D6 IC50, CYP2D6 inhibition): 0.4 µM
CC(=O)N[C@@H](Cc1cccc(-n2ccnc2)c1)[C@H](O)CN[C@H]1CC2(CCC2)Oc2ncc(CC(C)(C)C)cc21 [compound 615, N-((1S,2R)-3-(((4′S)-6′-(2,2-dimethylpropyl)-3′,4′-dihydrospiro[cyclobutane-1,2′-pyrano[2,3-b]pyridin]-4′-yl)amino)-2-hydroxy-1-(3-(1H-imidazol-1-yl)benzyl)propyl)acetamide]						160	IC50 [1, 16]: 0.06 µM; HLM ([2]; human liver microsomes): 59 µL/min/mg; RLM ([3]; rat liver microsomes): 32 µL/min/mg; IC50 [4, 17]: 0.007 µM; IC50 (CYP2D6; 2D6 IC50, CYP2D6 inhibition): 0.16 µM
COCC(=O)N[C@@H](Cc1ccc(-c2nccs2)c(F)c1)[C@H](O)CN[C@H]1CC2(CCC2)Oc2ncc(CC(C)C)cc21 [compound 787]		58	79		0.8	200	IC50 [1, 8]: 0.11 µM; IC50 [4, 9]: 0.451 µM
COCC(=O)N[C@@H](Cc1ccc(F)cc1)[C@H](O)CN[C@H]1CC2(CCC2)Oc2c1cc(CC(C)(C)C)nc2-c1ccncc1 [compound 549]	0.071	38	122	0.296	2	100	
CC(C)(C)CCC(=O)N[C@@H](Cc1ccccc1)[C@H](O)CN[C@H]1CC2(CCC2)Oc2ncc(CC(C)(C)C)cc21 [compound 819]		736	543		2	200	IC50 [1, 8]: 0.013 µM; IC50 [4, 9]: 0.074 µM
COCC(=O)N[C@@H](Cc1cccc(F)c1)[C@H](O)CN[C@H]1CC2(CCC2)Oc2c1cc(C=C(C)C)cc2-n1ccnc1 [compound 589]						200	IC50 [1, 16]: 0.257 µM; HLM ([2]; human liver microsomes): 27 µL/min/mg; RLM ([3]; rat liver microsomes): 217 µL/min/mg; IC50 [4, 17]: 0.105 µM; IC50 (CYP2D6; 2D6 IC50, CYP2D6 inhibition): 0.2 µM
COC(OC)C(=O)N[C@@H](Cc1cc(F)cc(-c2nccs2)c1)[C@H](O)CN[C@H]1CC2(CCC2)Oc2ncc(CC(C)(F)F)cc21 [compound 818]		41	46		2.3	600	IC50 [1, 8]: 0.013 µM; IC50 [4, 9]: 0.059 µM
CC(=O)N[C@@H](Cc1ccc(F)cc1)[C@H](O)CN[C@H]1CC2(CCC2)Oc2c1cc(CC(C)(C)C)nc2N1CCOCC1 [Example 421, N-((2S,3R)-4-((S)-2,2-spirocyclobutyl-8-morpholino-6-neopentyl-3,4-dihydro-2H-pyrano[2,3-c]pyridin-4-ylamino)-1-(4-fluorophenyl)-3-hydroxybutan-2-yl)acetamide]	0.134	211	151	0.054	3.6	1300	
COCC(=O)N[C@@H](Cc1cc(F)cc(F)c1)[C@H](O)CN[C@H]1CC2(CCC2)Oc2c(-c3cnc[nH]3)cc(CC(C)C)cc21 [compound 480]		272	405			500	IC50 [1, 13]: 0.023 µM; IC50 [4, 14]: 0.006 µM; IC50 (CYP2D6; [15]): 10.1 µM
CO[C@H](C)C(=O)N[C@@H](Cc1cc(F)cc(F)c1)[C@H](O)CN[C@H]1CC2(CCC2)Oc2c1cc(C1CC1)cc2-n1ccnc1 [compound 707]						≤ 30	IC50 [1, 10]: 0.114 µM; HLM ([2]; human liver microsomes): 14 µL/min/mg; RLM ([3]; rat liver microsomes): 39 µL/min/mg; IC50 [4, 11]: 0.028 µM; IC50 (CYP2D6; [12]): 0.6 µM
CO[C@@H](C)C(=O)N[C@@H](Cc1ccc2c(c1)OCO2)[C@H](O)CN[C@H]1CC2(CCC2)Cc2sc(CC(C)(C)C)cc21 [compound 456]		74	97			900	IC50 [1, 13]: 0.359 µM; IC50 [4, 14]: 0.723 µM; IC50 (CYP2D6; [15]): 3.1 µM
CC(C)(C)Cc1cnc2c(c1)[C@@H](NC[C@@H](O)[C@H](Cc1ccc(F)cc1)NC(=O)COC(F)F)CC1(CCC1)O2 [compound 647]						400	IC50 [1, 16]: 0.008 µM; HLM ([2]; human liver microsomes): 303 µL/min/mg; RLM ([3]; rat liver microsomes): 269 µL/min/mg; IC50 [4, 17]: 0.039 µM; IC50 (CYP2D6; 2D6 IC50, CYP2D6 inhibition): 2.7 µM
COCC(=O)N[C@@H](Cc1cc(F)cc(F)c1)[C@H](O)CN[C@H]1CC2(CCC2)Oc2c1cc(CC(C)(C)C)nc2Nc1cccnc1 [compound 568]	0.025	214	304	0.019	9.3	200	
COCC(=O)N[C@@H](Cc1ccc(F)cc1)[C@H](O)CN[C@H]1CC2(CCC2)Oc2ncc(CC(C)(C)C#N)cc21 [compound 496]	0.024	89	139	0.102	≥ 27	4700	
